In a melting point compilation (Tetko et al.; mined from patent text by program, amines drawn as free bases though some values may be those of a salt):

SMILES | melting point [°C]
O=C(CCCCCOc1ccccc1OCc1ccccc1)C(F)(F)F | 31 to 32
O=C(O)CCCc1cc2cc(Cl)ccc2n1S(=O)(=O)c1ccc2c(c1)CNCC2 | > 250
CCc1ccc2c(c1)C=Cc1cc(C)ccc1C2c1cn(Cc2ccc(C(=O)O)o2)c(=O)[nH]c1=S (configuration not stated) | 165
CN(CC=C(F)C(F)(F)C(F)(F)F)CCCCCC1Cc2cc(O)ccc2C2C(F)CC3(C)C(O)CCC3C12 (configuration not stated) | 122
COc1cc(C(=O)O)ccc1-c1nc2cc3c(cc2[nH]1)NC(=O)C3(C)C | 315 to 319
O=C(N[C@H](Cc1ccc(F)cc1)[C@@H](O)c1ccc(C(F)(F)F)cc1)c1cccc2ccccc12 (racemic) | 207 to 208
O=C(OCC1CCCC1)c1ncn2c1[C@@H]1CCCN1C(=O)c1c(Cl)cccc1-2 | 112 to 114
COc1cc(Nc2nccc(-c3ccc(NCCCN4CCOCC4)nc3)n2)cc(OC)c1OC | 165 to 166
Clc1ccccc1C(c1ccccc1)(c1ccccc1)n1cccn1 | 135
CCCc1cc(F)c2occ(C)c2c1O | 53 to 54
CC(/C=C/C=C(\C)C1=Cc2cc(C(C)(C)C)cc(C)c2OC1)=C\C(=O)O | 227 to 228
CC(C)CC(=O)Nc1cccc(-c2ccnc3c(-c4cccc(C#N)c4)cnn23)c1 | 166 to 167
Cc1c(O)cccc1C(=O)NC(Cc1ccccc1)C(O)C(=O)N1CSC(C)(C)C1C(=O)NC1CCCc2ccccc21 (configuration not stated) | 125 to 126
Fc1ccc2[nH]nc(-c3ccccc3)c2c1 | 124 to 125
C#CCOc1ccc2c(c1)nc(N)c1nc(COCC)n(CC(C)(C)NS(C)(=O)=O)c12 | 175 to 176
Cc1ccc(-c2cn3cc([N+](=O)[O-])ccc3n2)cc1 | 205 to 206
COc1ccc(CC(O)C(=O)c2ccccc2)cc1 (configuration not stated) | 100
C=CC1CC2=CC(=O)CCC2C2CCC3(CC)C(O)CCC3C12 (configuration not stated) | 155 to 156
N#Cc1c(N)oc2c(-c3ccccc3)cccc2c1=O | 217 to 219
CCOc1cc(CCCN2CCc3cc(OC)c(OC)cc3C2)ccc1NC(=O)c1cccc2c(=O)c3cccc(F)c3[nH]c12 | 200
CCc1nc2c(o1)C(=O)C=CC2=O | 99
CCCCNc1cc(-c2ccccc2)nc2nn(C)cc12 | 160 to 161

SMILES | melting point [°C]
Cc1ccc(C)n1Nc1ccc(N2CC(C)OC(C)C2)nn1 (configuration not stated) | 147 to 148
c1cc(NC2=NCCN2)ccc1Cc1ccc(OC2CCOCC2)cc1 | 169 to 170
CC(=O)OC1CCC2C3CCc4cc(O)c(C=O)cc4C3CCC12C (configuration not stated) | 184
CCCCOC(=O)C(C)Oc1ccc(COc2ccc(Cl)cc2)cc1 (configuration not stated) | 66
CNC(=O)c1cc(-c2ccc(SC)cc2)nn(CC2CC2)c1=O | 116 to 118
CC(=O)c1ccc(C(C)(c2ccc(C(C)=O)cc2)c2ccc(C(C)=O)cc2)cc1 | 232
Cc1ccccc1C(=O)CN1C(=O)C(NC(=O)Nc2cccc(-c3nnn[nH]3)c2)N=C(c2ccccc2F)c2cccc(C)c21 (configuration not stated) | 216 to 220
CCCn1c(=O)sc2cc(F)c(NC(=O)C=C(CC)NC(=O)OCC)cc21 | 174 to 175
CCCCNS(=O)(=O)CC(O)C(O)C(CC1CCCCC1)NC(=O)CC(CC)c1c[nH]cn1 (configuration not stated) | 60 to 90
NC(=O)Cc1ccc2[nH]cc(CCNC(=O)OCc3ccccc3)c2c1 | 124 to 125
O=C(CS(=O)(=O)c1ncc(Br)cn1)c1ccccc1 | 95
C=C(C)Cn1c(N)c(N)c(=O)n(C)c1=O | 152 to 153
CC1(C)CC(=C(c2ccc(O)cc2)c2ccc(-c3ccoc3)cc2)CC(C)(C)C1 | 128 to 129
O=c1ccsc2c1[nH]c1ccc(Br)cc12 | 334 to 337
NC(=O)c1ccc(NC(=O)C2CCCN(Cc3ccccc3)C2)cc1 (configuration not stated) | 211 to 212
CC(C)(C)OC(=O)C[C@@H](CC1CCCC1)C(=O)O | 86.5 to 88
CCOC(=O)c1sc(-c2ccc(C#N)cc2)nc1C | 144
CCCCNc1c(C#N)cnc2cc(F)c(OC)cc12 | 155 to 156
Clc1cc(N2CCNCC2)c(Cl)nn1 | 111 to 115
CCCCNC(=O)C(=O)Nc1ccc(OC)cc1[N+](=O)[O-] | 127 to 128
CCCCCC(=O)c1ccc(C(=O)Nc2ccc3cc(CN4CCCC4)cnc3c2C)cc1 | 175
COc1ccccc1-c1ccc2cnc(Nc3ccc4c(c3)NC(=O)CC4)nn12 | 310 to 313

SMILES | melting point [°C]
O=S(=O)(Cl)c1cccc(-c2cccc(-c3nc(-c4ccc(C(F)(F)F)cc4)cc(C(F)(F)F)n3)c2)c1 | 176
CCCC(=O)OCCOc1ccc2oc3cc(C#N)ccc3c(=O)c2c1 | 145 to 147
CCCc1csc2ncc(C(=O)OC)n12 | 149 to 150
CC1(C)CCC(C)(C)c2cc(-c3cc(-c4ccc(C(=O)O)cc4)ccc3-c3ccccc3)ccc21 | 287 to 288
CN(C)C(=O)CCC(=O)NC1CCC(CCN2CCN(c3nccc4c3OCC4)CC2)CC1 (configuration not stated) | 178
CCOC(=O)c1cn(C)c2cnc3c(F)c(Cl)c(F)cc3c2c1=O | 293
FC(F)(F)c1ccccc1CC[C@H]1CNCCN1 | 43 to 47
Nc1nc2c(ncn2OCCCOCP(=O)(O)O)c(=O)[nH]1 | 247 to 250
O=[N+]([O-])c1ccccc1Nc1ccc(Nc2nccs2)cc1 | 195 to 197
O=C(O)C1(C(F)F)c2ccccc2Oc2ccccc21 | 181 to 182
Cc1nc(N(C)C)nc(N)c1-c1cc(Cl)cc(Cl)c1Cl | 151 to 153
CS(=O)c1ccc(-c2coc3ccc(-c4nnc(O)o4)cc23)cc1 (configuration not stated) | 234 to 237
CN(C)C1C(O)CC2C3CCc4cc(O)ccc4C3CCC21C (configuration not stated) | 240 to 242
CS(=O)c1ccccc1S(=O)(=O)c1ccc(NC(=O)C(C)(O)C(F)(F)F)c(Cl)c1 (configuration not stated) | 118 to 120
CC(C)Oc1cc(CCCOc2ncccc2CC(=O)O)n(Cc2ccc(Cl)cc2Cl)n1 | 88 to 90
CCOC(=O)c1cn(Cc2ccccc2)nc1OCc1ccc(OCc2nc(-c3ccco3)oc2C)c(CC)c1 | 125 to 126
Cc1c(Cc2ccc(C(C)C)cc2)c2c(c(C)c1NC(=O)CC(C)(C)C)C(O)C(C)(C)O2 (configuration not stated) | 244 to 245
COc1ncnc(-c2cc(N)c(C#N)cc2F)c1Cl | 186 to 189
COc1ccc(CC2Cc3cc(C)cnc3C(OC(C)=O)C2)cc1 (single isomer, unassigned; (+)) | 94 to 98
CCOC(=O)n1ccc2cc(N)ccc21 | 113 to 114
O=C(Nc1nnn[nH]1)c1ccc2nc3ccsc3c(=O)n2c1 | 295 to 296

Further lines, results first:

melting point [°C] | SMILES
168 to 170 | NCc1ccc(N2CCN(c3ccncc3)CC2)cc1
89 to 93 | COc1cccc(C23CCCC=C2C(=O)N(CC2CCC2)C(=O)C3)c1 (configuration not stated)
65 | BrCCON=C1c2ccccc2-n2cccc21
160 to 162 | C[Si](C)(C)c1cccc2cc(C(=O)Nc3ccc(N4CCC4)nc3)n(Cc3cccc(F)c3)c12
235 to 237 | CCOC(=O)c1cc(CCC2CNc3nc(NC(=O)C(C)(C)C)nc(O)c3C2)[nH]n1 (configuration not stated)
177 to 180 | O=c1cc(-c2ccc(O)cc2)oc2ccccc12
92 to 93 | CCCCCCCNC(=O)N(C)c1cccc(-c2ccc(CCC(=O)O)c(F)c2)c1
211 to 214 | C=CCc1c2n(c3ccccc13)C(=O)C(=Cc1ncn(C(c3ccccc3)(c3ccccc3)c3ccccc3)c1C)CC2
112 to 113 | O=CNC(Cc1ccccc1)C1CC(Cc2ccccc2)=NO1 (configuration not stated)
114 to 116 | CN(C)C(=O)c1ccc2ccccc2c1/C=C/c1ccccc1
184 to 186 | COC(=O)c1cccc2c1nc(-c1c(F)cccc1F)n2Cc1c(F)cccc1F
165 to 166 | COc1cc(Nc2nccc(-c3ccc(NCCN4CCCC4)nc3)n2)cc(OC)c1OC
133 to 134 | CN(C(=O)c1ccc(-n2cc3ccccc3n2)cc1)[C@@H]1CCN(C(=O)OC(C)(C)C)C1
> 230 | COc1cncnc1N1CCN(CCCc2c[nH]c3ccc(N(C)S(=O)(=O)C(F)(F)F)cc23)CC1
207 to 210 | COc1cc2c3ccc(OC)c(OC)c3n(Cc3c(Cl)cccc3Cl)c2cc1OC
68 to 72 | O=C(Nc1nccs1)C(CC1CCCC1)c1ccc(Cl)c([N+](=O)[O-])c1 (configuration not stated)

melting point [°C] | SMILES
66 to 68 | O=C(c1cccs1)N1CCCC1
170 to 177 | Nc1nc2c(ncn2COC(COCc2ccccc2)COCc2ccccc2)c(=O)[nH]1
131 | CC(C(=O)Nc1ccc(Cl)cc1Cl)N1C(=O)C=CC1=O (configuration not stated)
148 to 150 | C[C@@H]1Cc2ccsc2[C@H](C)N1CCCNC(=O)c1ccc(NS(C)(=O)=O)cc1 (relative stereo)
175 to 176 | COc1ccc(C(C)CNC(=O)C(N)=O)cc1OC1CCCC1 (configuration not stated)
67 to 70 | CN(C)CCN1C(=O)C(C)(C)SC1c1cccnc1 (configuration not stated)
142 to 146 | COCCOCC(=O)N(c1c(C)c(C)cc2ccccc12)C1CCOC1=O (configuration not stated)
191 to 192 | CC(C)(C)OC(=O)COc1ccc(-c2c(Cl)c(CN3C(=O)CCC3=O)nc3sc4c(c23)CCSC4)cc1
194 to 195 | Cc1nc(-c2ccc(O)cc2)sc1C
135 to 138 | OCCCOc1ccc(-n2nc(-c3ccccc3)c3cccnc32)cc1
49 | CCCCCCCCCCCCCCCCOCC(O)COC(c1ccccc1)(c1ccccc1)c1ccccc1 (configuration not stated)
70 to 80 | COc1cc2c(cc1Nc1ncc(Cl)c(Nc3ccc(N4CCOCC4)cc3OC)n1)CCN(CC(=O)OC(C)C)CC2
178 to 181 | C[C@@H]1CCCN1CCCOc1ccc(-c2ccc(=O)[nH]n2)cn1
138 to 140 | CC1=C(C(=O)OCC2CCCO2)C(c2cccc(Br)c2)C(C(=O)OCC2CCCO2)=C(C)N1 (configuration not stated)
77 to 79 | CCOC(=O)CCCCCCCSc1nc(-c2ccccc2)c(-c2ccccc2)[nH]1
212 | CCCCN1C(=O)NC(=Cc2ccc(C(=O)OC)cc2)C1=O
